Results taken from PubChem BioAssay (NCI).
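Results reflect a 48-hour exposure of cells in 96-well plates to compound at five concentrations. GI50 marks 50% less growth. TGI denotes the concentration required for complete inhibition of growth.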

Key:
Test in all cases: NCI-60 cell line screen, 48 h
SF-295 CNS = tested on: SF-295 CNS
OVCAR-5 ovarian = tested on: OVCAR-5 ovarian
OVCAR-3 ovarian = tested on: OVCAR-3 ovarian
SNB-19 CNS = tested on: SNB-19 CNS
MALME-3M melanoma = tested on: MALME-3M melanoma
UO-31 renal = tested on: UO-31 renal
HS 578T breast = tested on: HS 578T breast
SF-268 CNS = tested on: SF-268 CNS
NCI-H522 lung = tested on: NCI-H522 lung
SW-620 colon = tested on: SW-620 colon
RPMI-8226 leukemia = tested on: RPMI-8226 leukemia
MDA-MB-468 breast = tested on: MDA-MB-468 breast
T-47D breast = tested on: T-47D breast
MDA-MB-231 breast = tested on: MDA-MB-231 breast
HOP-62 NSCLC = tested on: HOP-62 NSCLC
U251 CNS = tested on: U251 CNS
SK-OV-3 ovarian = tested on: SK-OV-3 ovarian
OVCAR-4 ovarian = tested on: OVCAR-4 ovarian
KM12 colon = tested on: KM12 colon
SNB-75 CNS = tested on: SNB-75 CNS
786-0 renal = tested on: 786-0 renal
OVCAR-8 ovarian = tested on: OVCAR-8 ovarian
ACHN renal = tested on: ACHN renal
K-562 leukemia = tested on: K-562 leukemia
MOLT-4 leukemia = tested on: MOLT-4 leukemia
IGROV1 ovarian = tested on: IGROV1 ovarian
COLO 205 colon = tested on: COLO 205 colon
SK-MEL-28 melanoma = tested on: SK-MEL-28 melanoma
NCI-H226 lung = tested on: NCI-H226 lung
SR leukemia = tested on: SR leukemia
A498 renal = tested on: A498 renal
RXF 393 renal = tested on: RXF 393 renal
SF-539 CNS = tested on: SF-539 CNS
TK-10 renal = tested on: TK-10 renal
HL-60(TB) leukemia = tested on: HL-60(TB) leukemia
LOX IMVI melanoma = tested on: LOX IMVI melanoma
NCI-H23 lung = tested on: NCI-H23 lung
CCRF-CEM leukemia = tested on: CCRF-CEM leukemia
M14 melanoma = tested on: M14 melanoma
BT-549 breast = tested on: BT-549 breast
HOP-92 NSCLC = tested on: HOP-92 NSCLC
MDA-MB-435 = tested on: MDA-MB-435
PC-3 prostate = tested on: PC-3 prostate
SK-MEL-5 melanoma = tested on: SK-MEL-5 melanoma
SN12C renal = tested on: SN12C renal
HCC-2998 colon = tested on: HCC-2998 colon
SK-MEL-2 melanoma = tested on: SK-MEL-2 melanoma
MCF7 breast = tested on: MCF7 breast
HT29 colon = tested on: HT29 colon
UACC-62 melanoma = tested on: UACC-62 melanoma
NCI-H460 lung = tested on: NCI-H460 lung
DU-145 prostate = tested on: DU-145 prostate
EKVX NSCLC = tested on: EKVX NSCLC
A549 NSCLC = tested on: A549 NSCLC
CAKI-1 renal = tested on: CAKI-1 renal
UACC-257 melanoma = tested on: UACC-257 melanoma
HCT-15 colon = tested on: HCT-15 colon
HCT-116 colon = tested on: HCT-116 colon

CC(C)N=C([Se])NC(=O)c1cccs1
GI50 (SF-295 CNS): 2180 nM
TGI (SF-295 CNS): 6.77 µM
GI50 (OVCAR-5 ovarian): 16 µM
TGI (OVCAR-5 ovarian): 31.4 µM
GI50 (OVCAR-3 ovarian): 14.9 µM
TGI (OVCAR-3 ovarian): 28.6 µM
GI50 (SNB-19 CNS): 4.82 µM
TGI (SNB-19 CNS): 20 µM
GI50 (MALME-3M melanoma): 17 µM
TGI (MALME-3M melanoma): 33.2 µM
GI50 (UO-31 renal): 13.8 µM
TGI (UO-31 renal): 26.7 µM
GI50 (HS 578T breast): 7.16 µM
TGI (HS 578T breast): 32 µM
GI50 (SF-268 CNS): 19.9 µM
TGI (SF-268 CNS): 57.1 µM
GI50 (NCI-H522 lung): 14.4 µM
TGI (NCI-H522 lung): 28.1 µM
GI50 (SW-620 colon): 16.7 µM
TGI (SW-620 colon): 33 µM
GI50 (RPMI-8226 leukemia): 19.9 µM
TGI (RPMI-8226 leukemia): 56.4 µM
GI50 (MDA-MB-468 breast): 16.5 µM
TGI (MDA-MB-468 breast): 34.6 µM
GI50 (T-47D breast): 19.4 µM
TGI (T-47D breast): 48.8 µM
GI50 (MDA-MB-231 breast): 17.6 µM
TGI (MDA-MB-231 breast): 36.1 µM
GI50 (HOP-62 NSCLC): 4.11 µM
TGI (HOP-62 NSCLC): 19.1 µM
GI50 (U251 CNS): 7.84 µM
TGI (U251 CNS): 21.5 µM
GI50 (SK-OV-3 ovarian): 16.2 µM
TGI (SK-OV-3 ovarian): 30.5 µM
GI50 (OVCAR-4 ovarian): 16.8 µM
TGI (OVCAR-4 ovarian): 36 µM
GI50 (KM12 colon): 12.1 µM
TGI (KM12 colon): 26.2 µM
GI50 (SNB-75 CNS): 5.51 µM
TGI (SNB-75 CNS): 21.3 µM
GI50 (786-0 renal): 17.7 µM
TGI (786-0 renal): 31.9 µM
GI50 (OVCAR-8 ovarian): 15.6 µM
TGI (OVCAR-8 ovarian): 29.5 µM
GI50 (ACHN renal): 18 µM
TGI (ACHN renal): 37.4 µM
GI50 (K-562 leukemia): 28.4 µM
TGI (K-562 leukemia): 87.1 µM
GI50 (MOLT-4 leukemia): 20.8 µM
TGI (MOLT-4 leukemia): 58.1 µM
GI50 (IGROV1 ovarian): 8.04 µM
TGI (IGROV1 ovarian): 21.1 µM
GI50 (COLO 205 colon): 16.8 µM
TGI (COLO 205 colon): 31.7 µM
GI50 (SK-MEL-28 melanoma): 16.9 µM
TGI (SK-MEL-28 melanoma): 35.1 µM
GI50 (NCI-H226 lung): 16.3 µM
TGI (NCI-H226 lung): 35.3 µM
GI50 (SR leukemia): 12.6 µM
TGI (SR leukemia): 49.9 µM
GI50 (A498 renal): 6.55 µM
TGI (A498 renal): 59.2 µM
GI50 (RXF 393 renal): 12.2 µM
TGI (RXF 393 renal): 24.8 µM
GI50 (SF-539 CNS): 13.2 µM
TGI (SF-539 CNS): 26.1 µM
GI50 (TK-10 renal): 16 µM
TGI (TK-10 renal): 29.5 µM
GI50 (HL-60(TB) leukemia): 20.3 µM
TGI (HL-60(TB) leukemia): 55.6 µM
GI50 (LOX IMVI melanoma): 13.2 µM
TGI (LOX IMVI melanoma): 27.2 µM
GI50 (NCI-H23 lung): 10.2 µM
TGI (NCI-H23 lung): 23.8 µM
GI50 (CCRF-CEM leukemia): 17.4 µM
TGI (CCRF-CEM leukemia): 50.6 µM
GI50 (M14 melanoma): 12.7 µM
TGI (M14 melanoma): 26.6 µM
GI50 (BT-549 breast): 15.4 µM
TGI (BT-549 breast): 31 µM
GI50 (HOP-92 NSCLC): 22.1 µM
TGI (HOP-92 NSCLC): 51.6 µM
GI50 (MDA-MB-435): 16.3 µM
TGI (MDA-MB-435): 33 µM
GI50 (PC-3 prostate): 4.06 µM
TGI (PC-3 prostate): 16.6 µM
GI50 (SK-MEL-5 melanoma): 2820 nM
TGI (SK-MEL-5 melanoma): 14.3 µM
GI50 (SN12C renal): 10.9 µM
TGI (SN12C renal): 23.9 µM
GI50 (HCC-2998 colon): 5.8 µM
TGI (HCC-2998 colon): 18.4 µM
GI50 (SK-MEL-2 melanoma): 15.7 µM
TGI (SK-MEL-2 melanoma): 34.5 µM
GI50 (MCF7 breast): 6.58 µM
TGI (MCF7 breast): 35.2 µM
GI50 (HT29 colon): 18.4 µM
TGI (HT29 colon): 46.6 µM
GI50 (UACC-62 melanoma): 14.1 µM
TGI (UACC-62 melanoma): 28.7 µM
GI50 (NCI-H460 lung): 3.37 µM
TGI (NCI-H460 lung): 19 µM
GI50 (DU-145 prostate): 19.3 µM
TGI (DU-145 prostate): 40 µM
GI50 (EKVX NSCLC): 7.45 µM
TGI (EKVX NSCLC): 20.8 µM
GI50 (A549 NSCLC): 4.3 µM
TGI (A549 NSCLC): 33.1 µM
GI50 (CAKI-1 renal): 17 µM
TGI (CAKI-1 renal): 32.6 µM
GI50 (UACC-257 melanoma): 15.5 µM
TGI (UACC-257 melanoma): 29.8 µM
GI50 (HCT-15 colon): 18.4 µM
TGI (HCT-15 colon): 37.5 µM
GI50 (HCT-116 colon): 4.78 µM
TGI (HCT-116 colon): 18.4 µM
